Data published in US5707615A, “Method of treating HIV infections with anti-viral formulations” (Merrell Pharmaceuticals Inc., priority 1997, dated 1998).

Tests used:
[1] = test system: viral protein which is responsible for cell recognition; details: cited from earlier work
[2] = test system: HIV-I, GB8; assay: Ability to prevent syncytia formation and expression of P24 viral core antigen using JM cells and GB8 virus strain (Example I); assay type: cell-based; details: for P24 % CONTROL: 4320 min
Description: The virus was first incubated with an oligomer for 15 minutes and then the cells were added. After 2 hours adsorption, the virus innoculum was removed and the cells were washed three times to remove traces of input virus. Antiviral activity was determined after 3 days incubation by plotting the mean number of syncytia found in quadruple cultures against log10 concentration of anionic polymer or of other test compounds. The potency of an oligomer was also measured by assaying viral core antigen (P24 test-Abbott) in the supernatant fluid. Heparin, dextran sulfate, rs CD4, ATZ and/or ddC data, when included in any of the following Tables, are provided as positive controls.

[3] = test system: HIV strain RF; assay: Ability to prevent virus-induced cell death using MT4 cells and strain RF (Example III); assay type: cell-based; details: MT4 cells, 7 days, MTT
Description: (§1) Various oligomers were dissolved in RPMI and were then assayed for anti-HIV activity by making doubling dilutions of the solutions across a 96 well microtitre plate. To each well were then added 5×10^4 cells and 100 TCID50 of virus and the plates incubated at 37° C. for 7 days. MTT was added to each well and the plates incubated for a further 2 hours. The blue formazan crystals were dissolved using acidic isopropanol, and the absorbance measured at 540 nm.

[4] = test system: GB8 virus in JM cells; assay: Virus infection of JM cells with GB8 in the presence of test compounds: syncytia and P24 (Example II); details: for SYNCYTIA % / P24 %: % of control; for SYNCYTIA %: 2880 min; for P24 %: 5760 min
Description: Virus infection of JM cells was carried out in the presence of different concentrations of test compounds. JM cells (1×10^5) and 50-100 syncytial forming units of virus (GB8) were added to duplicate wells of a tissue culture plate containing 1 mL volumes of growth medium with or without drug. The plate was incubated for 2 days at 37° C. and then scored for the presence of syncytia. At the same time the cells were washed and the growth medium replaced. After a further two days incubation, the cell free supernatant fluids were harvested and assayed for levels of P24 viral core antigen using the Coulter™ HIV Antigen assay.

[5] = test system: HIV-I (GB8); assay: Pretreatment of JM cells and block of HIV-I (GB8) infection (Example IV); details: pretreated overnight at 20 μg/mL
Description: JM cells were pretreated overnight at 37° C. with different compounds at 20 μg/mL or left untreated. The cells were washed 3 times in RPMI medium and then infected with HIV-I (GB8) for 2 hours at room temperature. The cells were again washed 3 times in RPMI medium and resuspended in fresh medium prior to being distributed into duplicate wells and incubated at 37° C. After 2 days syncytia were scored and the cell free supernatant fluid harvested and assayed for P24 viral core antigen using the Coulter™ HIV antigen assay.

[6] = test system: MT4 cells; assay: Toxicity to MT4 cells (TD50, Table IV, MTT); assay type: cell-based; details: human, mt4 cells, 168 h
Description: as §1

[7] = in vivo; cited from earlier work

For Heparin [reference compound], which “inhibition of host cell infection” value [1] is on record?
The value was “limited inhibition of host cell infection”.

And the P24 ([2]; 0.6 μg/mL)?
Its P24 is 44570 pg/mL.

And the “P24 % CONTROL” value ([2]; 0.6 μg/mL)?
Its value is 0.1%.

And the P24 ([2]; 2.5 μg/mL)?
The P24 was 25775 pg/mL.

What about the “P24 % CONTROL” value ([2]; 2.5 μg/mL) of the same substance?
Its value is < 0.1%.

What about the P24 ([2]; 5.0 μg/mL) of the same substance?
The P24 was 2500 pg/mL.

And the “P24 % CONTROL” value ([2]; 5.0 μg/mL)?
The value was < 0.1%.

What about the SYNCYTIA ([2]; 5.0 μg/mL, after 3 days) of the same substance?
Its SYNCYTIA is 0.

And the ED50 [3]?
The ED50 was 4.6 µg/mL.

What about the “SYNCYTIA (2 DAYS) MEAN” value ([4]; Table II, 0.01 μg/mL) of the same substance?
Its value is 38.

And the SYNCYTIA % ([4]; Table II, 0.01 μg/mL)?
The SYNCYTIA % was 90%.

What about the “SYNCYTIA (2 DAYS) MEAN” value ([4]; Table II, 0.03 μg/mL) of the same substance?
Its value is 29.

What about the SYNCYTIA % ([4]; Table II, 0.03 μg/mL) of the same substance?
Its SYNCYTIA % is 69%.

And the “SYNCYTIA (2 DAYS) MEAN” value ([4]; Table II, 0.1 μg/mL)?
Its value is 24.

And the SYNCYTIA % ([4]; Table II, 0.1 μg/mL)?
Its SYNCYTIA % is 57%.

What about the P24 ([4]; Table II, 0.3 μg/mL) of the same substance?
The P24 was 4.1 × 10^4 units/mL.

And the “SYNCYTIA (2 DAYS) MEAN” value ([4]; Table II, 0.3 μg/mL)?
Its value is 22.

What about the SYNCYTIA % ([4]; Table II, 0.3 μg/mL) of the same substance?
The SYNCYTIA % was 52%.

And the P24 % ([4]; Table II, 0.3 μg/mL)?
The P24 % was 11%.

And the “SYNCYTIA (2 DAYS) MEAN” value ([4]; Table II, 1 μg/mL)?
The value was 2.

What about the SYNCYTIA % ([4]; Table II, 1 μg/mL) of the same substance?
The SYNCYTIA % was 5%.

And the P24 % ([4]; Table II, 1 μg/mL)?
The P24 % was 8%.

And the P24 ([4]; Table II, 3 μg/mL)?
The P24 was 1.7 × 10^4 units/mL.

What about the “SYNCYTIA (2 DAYS) MEAN” value ([4]; Table II, 3 μg/mL) of the same substance?
The value was 0.

And the SYNCYTIA % ([4]; Table II, 3 μg/mL)?
The SYNCYTIA % was 0%.

And the P24 % ([4]; Table II, 3 μg/mL)?
Its P24 % is 5%.

What about the “SYNCYTIA (2 DAYS) MEAN” value ([4]; Table II, 10 μg/mL) of the same substance?
The value was 0.

And the SYNCYTIA % ([4]; Table II, 10 μg/mL)?
The SYNCYTIA % was 0%.

And the P24 % ([4]; Table II, 10 μg/mL)?
Its P24 % is 3%.

What about the P24 ([4]; Table III, 1 μg/mL) of the same substance?
Its P24 is 211000 pg/mL.

What about the “SYNCYTIA MEAN” value ([4]; Table III, 1 μg/mL) of the same substance?
The value was 13.

What about the SYNCYTIA % ([4]; Table III, 1 μg/mL) of the same substance?
The SYNCYTIA % was 19%.

What about the P24 % ([4]; Table III, 1 μg/mL) of the same substance?
The P24 % was 63%.

And the P24 ([4]; Table III, 10 μg/mL)?
Its P24 is 70700 pg/mL.

And the “SYNCYTIA MEAN” value ([4]; Table III, 10 μg/mL)?
The value was 0.

What about the P24 % ([4]; Table III, 10 μg/mL) of the same substance?
Its P24 % is 21%.

What about the P24 ([4]; Table III, 100 μg/mL) of the same substance?
Its P24 is 989 pg/mL.

And the “SYNCYTIA MEAN” value ([4]; Table III, 100 μg/mL)?
The value was 0.

And the P24 % ([4]; Table III, 100 μg/mL)?
The P24 % was 0.3%.

And the P24 [5]?
The P24 was 29090 pg/mL.

What about the “MEAN SYNCYTIA” value ([5]; 2 days) of the same substance?
The value was 136.

And the P24 % ([5]; % of control, 2880 min)?
Its P24 % is 103%.

And the SYNCYTIA % ([5]; % of control, 2880 min)?
Its SYNCYTIA % is 114%.

What about the TD50 [6] of the same substance?
Its TD50 is > 100 µg/mL.

What about the side effects [7] of the same substance?
Its side effects is “hemorrhage and increased clot formation time as well as thrombocytopenia”.
